This test deals with SARS2 replicon. Briefly: microbe, parasite or virus in culture. The format is cell-based, SARS-CoV-2. The settings on record: Severe acute respiratory syndrome coronavirus 2, HEK-293T, 24 hr, read-out: inhibition of fLuc.

Results on 1 molecule are retold here after patent US20230304041A1, “DUAL PROMOTER-DRIVEN AND DUAL REPORTER-[…]-COV-2 REPLICONS AND METHODS OF USE” (Rosalind Franklin University of Medicine & Science, priority 2022, published 2023).

What is called inhibition is the percentage by which the read-out fell short of the control.

For `CCC(CC)COC(=O)[C@H](C)N[P@](=O)(OC[C@H]1O[C@@](C#N)(c2ccc3c(N)ncnn23)[C@H](O)[C@@H]1O)Oc1ccccc1` [Remdesivir], the inhibition at 10 µM is 70%.
